Here are results for four compounds from patent US20210317099A1, “SAFER, POTENT, AND FAST ACTING ANTIMICROBIAL AGENTS” (Purdue Research Foundation, priority 2020, published 2021).

What all share (assay type): cell-based
Data set [1] relates to Staphylococcus aureus NRS384 (MRSA USA300). Put plainly: Initial MIC screening, broth microdilution (CLSI). As to conditions: for potency compared with control antibiotic: MRSA USA300, Table 1 assay; for MIC: Staphylococcus aureus NRS384 (MRSA USA300), broth microdilution, visual reading. The method in brief:
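MRSA USA300 grown 24 h at 37 °C on tryptic soy agar, then adjusted to 5×10^5 CFU/ml in cation-adjusted Mueller-Hinton broth. Compounds serially diluted 64 to 0.5 μg/mL per CLSI broth microdilution; MIC recorded.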
On the technique in general: In broth dilution the organism is exposed to a series of concentrations in liquid medium.

Data set [2] deals with Enterococcus faecium ATCC 700221 (VRE). In words: MIC, Gram-positive panel. As to conditions: Enterococcus faecium ATCC 700221 (VRE); read-out: MIC. The method in brief: (§1)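 Strains are first grown aerobically overnight at 37° C on tryptone soya agar. A 0.5 McFarland suspension is then diluted in cation-adjusted Mueller-Hinton broth, compounds are serially diluted across the plate with this inoculum, and plates stand aerobically at 37° C for 18-20 h.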

The test system of another data set is MRSA NRS 123. In words: MIC, Gram-positive panel. As to conditions: Staphylococcus aureus; MRSA NRS 123; read-out: MIC. Summed up:
(§2)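 Aerobic 37° C incubation for 18-20 h followed exposure of CAMHB-diluted staphylococci (from 0.5 McFarland, overnight tryptone soya agar growth) to serial compound dilutions.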

The subject of the next data set is MRSA NRS 385. In words: MIC, Gram-positive panel. As to conditions: Staphylococcus aureus; MRSA NRS 385; read-out: MIC. Summed up: as §2
Data set [3] has as its system Methicillin-resistant S. pneumoniae ATCC 700677. Put plainly: MIC, Gram-positive panel. As to conditions: Streptococcus pneumoniae, ATCC700677; Methicillin-resistant S. pneumoniae ATCC 700677; read-out: MIC. Summed up:
as §1

The next data set has as its system S. aureus NRS 107. In words: MIC, Gram-positive panel. Conditions: Staphylococcus aureus, NRS107; S. aureus NRS 107; read-out: MIC. Summed up:
as §2

In the next data set the test system is S. pneumoniae ATCC 51916. In words: MIC, Gram-positive panel. As to conditions: Streptococcus pneumoniae, ATCC51916; S. pneumoniae ATCC 51916; read-out: MIC. The method in brief:
as §1

Data set [4] concerns human keratinocytes cell line (HaCaT cells). Put plainly: In vitro cytotoxicity, MTS assay. As to conditions: 2 h. The protocol: Compounds 144, 148, 149, 151, 155, and 158 were assayed (at concentrations of 16, 32, and 64 μg/mL) against a human keratinocytes cell line (HaCaT cells) to determine their in vitro potential toxic effect. Briefly, cells were cultured in Dulbecco's Modified Eagle Medium (DMEM) supplemented with 10% fetal bovine serum (FBS) and penicillin-streptomycin at 37° C. in presence of 5% CO2. Compounds were added in the first row of the 96-well plate. Control cells received DMSO alone at a concentration equivalent to that in drug-treated wells. The cells were incubated with the compounds (in triplicate) in a 96-well plate at 37° C. in presence of 5% CO2 for two hours. The assay reagent MTS 3-(4,5-dimethylthiazol-2-yl)-5-(3-carboxymethoxyphenyl)-2-(4-sulfophenyl)-2H-tetrazolium) (Promega, Madison, Wis., USA) was subsequently added and the plate was incubated for three to four hours. Absorbance readings (at OD490) were recorded using a kinetic microplate reader (Molecular Devices, Sunnyvale, Calif., USA). The quantity of viable cells after treatment with each compound was expressed as a percentage of the viability to DMSO-treated control cells (average of triplicate wells±standard deviation).
FIG. 2. Analyzing the toxicity of compounds 144, 148, 149, 151, 155 and 158 (tested in triplicates at 16, 32 and 64 μg/mL) against human keratinocytes cells (HaCaT) using the MTS 3-(4,5-dimethylthiazol-2-yl)-5-(3-carboxymethoxyphenyl)-2-(4-sulfophenyl)-2H-tetrazolium) assay. Results are presented as percent viable cells relative to DMSO (negative control to determine a baseline measurement for the cytotoxic impact of each compound). The absorbance values represent an average of three samples analyzed for each compound. Error bars represent standard deviation values. The data were analyzed via a two-way ANOVA with post-hoc Dunnett's test for multiple comparisons. An asterisk (*) denotes statistical significance (P<0.05) between results for compounds and DMSO.
For orientation: Formazan colour is commonly taken as a measure of viable cells.

Where [5] appears, read: Staphylococcus aureus, read-out: MIC.

Structures are written as SMILES. Converted amounts (≈) assume the structure as drawn. Where two headings read alike, the source gives them in different places. Bounds are passed on as bounds.

In the case of `C=C(C(=O)OC)C(c1ccc2ccccc2c1)C(O)c1cccc2ccccc12` (stereo not shown) [Compound 148], the “potency compared with control antibiotic” value in data set [1] is “potency comparable to vancomycin”. Also, the minimal inhibitory concentration (MIC) in data set [1] was 2 µg/mL (≈ 5.23 µM); in data set [1] (setting [5]), 1 to 2 µg/mL (≈ 2.61 to 5.23 µM); in data set [2], more than 64 µg/mL; with MRSA NRS 123, 1 µg/mL (≈ 2.61 µM); with MRSA NRS 385 it was 1 µg/mL (≈ 2.61 µM); in data set [3] it was 1 µg/mL (≈ 2.61 µM). Also, the MIC in the data set on S. aureus NRS 107 and in the data set with S. pneumoniae ATCC 51916 was 1 µg/mL (≈ 2.61 µM) each time.

With `C=C1C(=O)O[C@H](c2ccccc2)[C@@H]1c1cccc2ccccc12` [Compound 151], the “potency compared with control antibiotic” value in data set [1] was “potency similar to the oxazolidinone class of antimicrobial drug linezolid”. The MIC in data set [1] was 1 µg/mL (≈ 3.33 µM); in data set [1] (setting [5]) it was 1 to 2 µg/mL (≈ 3.33 to 6.66 µM); in data set [2], more than 64 µg/mL; in the data set on MRSA NRS 123, 2 µg/mL (≈ 6.66 µM); in the data set on MRSA NRS 385 it was 1 µg/mL (≈ 3.33 µM); in data set [3], 4 µg/mL (≈ 13.3 µM). Moreover, the MIC turned out to be 2 µg/mL (≈ 6.66 µM) in the data set with S. aureus NRS 107 and 4 µg/mL (≈ 13.3 µM) with S. pneumoniae ATCC 51916. Also, the “tolerable concentration as multiple of MIC against MRSA” value in data set [4] lay in the range of 16 to 32 times.

With `C=C1C(=O)O[C@H](c2cccc3ccccc23)[C@@H]1c1ccc2ccccc2c1` [Compound 155], the “potency compared with control antibiotic” value in data set [1] is “potency comparable to vancomycin”. Moreover, the MIC in data set [1] is 2 µg/mL (≈ 5.71 µM); in data set [1] (setting [5]) it was 1 to 2 µg/mL (≈ 2.85 to 5.71 µM); in data set [2], more than 64 µg/mL; in the data set on MRSA NRS 123, 1 µg/mL (≈ 2.85 µM); in the data set on MRSA NRS 385, 1 µg/mL (≈ 2.85 µM); in data set [3], 1 µg/mL (≈ 2.85 µM). Besides, the minimal inhibitory concentration (MIC) with S. aureus NRS 107 and in the data set with S. pneumoniae ATCC 51916 was 1 µg/mL (≈ 2.85 µM) throughout.

For `C=C1C(=O)O[C@H](c2ccc3ccccc3c2)[C@@H]1c1ccc2ccccc2c1` [Compound 158], the “potency compared with control antibiotic” value in data set [1] is reported as “potency comparable to vancomycin”. Further, the MIC in data set [1] was 2 µg/mL (≈ 5.71 µM); in data set [1] (setting [5]), 1 to 2 µg/mL (≈ 2.85 to 5.71 µM); in data set [2] it was more than 64 µg/mL; with MRSA NRS 123 it was 1 µg/mL (≈ 2.85 µM); with MRSA NRS 385 it was 1 µg/mL (≈ 2.85 µM); in data set [3] it was 2 µg/mL (≈ 5.71 µM). Further, the MIC in the data set with S. aureus NRS 107 turned out to be 1 µg/mL (≈ 2.85 µM); in the data set with S. pneumoniae ATCC 51916, 2 µg/mL (≈ 5.71 µM).

In general, MIC refers to the least concentration at which growth counts as inhibited.
